Reference: publication PMC11055700 (Chemicke Zvesti, 2024)
Where two headings read alike, the source gives them in different places.

Assays:
[1] = target: T1, SARS-CoV-2 Spike-RBD (ancestral, WT) / ACE2 (Homo sapiens, UniProt Q9BYF1); assay: biochemical; format: binding; details: IC50 Spike/ACE2
T1 construct: a SARS-CoV-2 RBD protein containing a C-terminal His tag; a full-length ACE2 peptide with a C-terminal Fc tag; purchased Sino Biological

[2] = target: T2, SARS-CoV-2 Spike-RBD (beta) / ACE2 (Homo sapiens, UniProt Q9BYF1); assay: biochemical; format: binding
T2 construct: a SARS-CoV-2 RBD protein containing a C-terminal His tag; a full-length ACE2 peptide with a C-terminal Fc tag; purchased Sino Biological

[3] = target: T3, SARS-CoV-2 Spike-RBD (delta) / ACE2 (Homo sapiens, UniProt Q9BYF1); assay: biochemical; format: binding
T3 construct: a SARS-CoV-2 RBD protein containing a C-terminal His tag; a full-length ACE2 peptide with a C-terminal Fc tag; purchased Sino Biological

[4] = target: T4, SARS-CoV-2 Spike-RBD (lambda) / ACE2 (Homo sapiens, UniProt Q9BYF1); assay: biochemical; format: binding
T4 construct: a SARS-CoV-2 RBD protein containing a C-terminal His tag; a full-length ACE2 peptide with a C-terminal Fc tag; purchased Sino Biological

[5] = target: T5, SARS-CoV-2 Spike-RBD (omicron) / ACE2 (Homo sapiens, UniProt Q9BYF1); assay: biochemical; format: binding
T5 construct: a SARS-CoV-2 RBD protein containing a C-terminal His tag; a full-length ACE2 peptide with a C-terminal Fc tag; purchased Sino Biological

[6] = target: T6, human PD-1 / human PD-L1 (Homo sapiens, UniProt Q15116+Q9NZQ7); assay: AlphaScreen PD-1-PD-L1 binding assay; details: unrelated ligand-receptor pair
T6 construct: purchased Sino Biological
T6 sequence (Q15116 25-167 limits assumed): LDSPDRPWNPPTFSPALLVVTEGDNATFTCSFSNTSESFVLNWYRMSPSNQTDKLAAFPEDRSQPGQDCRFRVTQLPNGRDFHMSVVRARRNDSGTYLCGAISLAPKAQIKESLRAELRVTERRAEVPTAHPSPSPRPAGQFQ
T6 sequence (Q9NZQ7 19-239 limits assumed): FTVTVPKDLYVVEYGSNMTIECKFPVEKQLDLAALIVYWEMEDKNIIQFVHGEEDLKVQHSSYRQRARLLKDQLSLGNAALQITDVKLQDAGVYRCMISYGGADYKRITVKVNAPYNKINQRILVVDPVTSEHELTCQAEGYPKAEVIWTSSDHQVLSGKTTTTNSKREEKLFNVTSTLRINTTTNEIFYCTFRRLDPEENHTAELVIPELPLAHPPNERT

T2 sequence (Q9BYF1 18-740): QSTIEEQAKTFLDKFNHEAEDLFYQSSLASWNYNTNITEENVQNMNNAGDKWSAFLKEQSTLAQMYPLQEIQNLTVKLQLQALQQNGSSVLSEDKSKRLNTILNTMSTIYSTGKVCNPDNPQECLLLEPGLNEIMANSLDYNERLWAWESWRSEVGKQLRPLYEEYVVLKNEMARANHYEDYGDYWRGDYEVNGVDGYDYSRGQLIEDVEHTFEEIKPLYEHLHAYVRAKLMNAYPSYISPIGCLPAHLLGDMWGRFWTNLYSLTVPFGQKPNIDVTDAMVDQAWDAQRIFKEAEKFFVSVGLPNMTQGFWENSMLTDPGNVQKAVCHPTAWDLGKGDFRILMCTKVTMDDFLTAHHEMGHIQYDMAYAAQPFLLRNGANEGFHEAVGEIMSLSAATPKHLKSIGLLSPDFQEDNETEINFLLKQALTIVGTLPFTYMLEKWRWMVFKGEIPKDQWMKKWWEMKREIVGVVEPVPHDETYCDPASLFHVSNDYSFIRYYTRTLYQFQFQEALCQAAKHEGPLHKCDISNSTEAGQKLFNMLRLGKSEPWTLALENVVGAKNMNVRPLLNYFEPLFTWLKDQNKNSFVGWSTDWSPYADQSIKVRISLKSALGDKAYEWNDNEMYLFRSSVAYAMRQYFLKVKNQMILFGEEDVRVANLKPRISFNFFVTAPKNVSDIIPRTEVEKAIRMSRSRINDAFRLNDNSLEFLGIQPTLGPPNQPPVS
T3 sequence (Q9BYF1 18-740): as above
T4 sequence (Q9BYF1 18-740): as above
T5 sequence (Q9BYF1 18-740, change not shown): as the sequence (Q9BYF1 18-740) above
T1 sequence (Q9BYF1 18-740): as above

| Compound | IC50 [1] | IC50 [2] | IC50 [3] | IC50 [4] | IC50 [5] | IC50 [6] | melting point | fold weaker against the beta RBD [2] | IC50 ([2]; read-out: IC50 spike RBD/ACE2 binding, Beta RBD sequence) | IC50 ([3]; read-out: IC50 spike RBD/ACE2 binding, Delta RBD sequence) | IC50 ([4]; read-out: IC50 spike RBD/ACE2 binding, Lambda RBD sequence) | IC50 ([5]; read-out: IC50 spike RBD/ACE2 binding, Omicron RBD sequence) |
| --- | --- | --- | --- | --- | --- | --- | --- | --- | --- | --- | --- | --- |
| O=C1Nc2ccc(Cl)cc2C1=NNc1ccc([N+](=O)[O-])cc1[N+](=O)[O-] [H2L, 5-chloro-3-(2-(2,4-dinitrophenyl)hydrazono)indolin-2-one] | 260 nM | 490 nM | 464 nM | 628 nM | 615 nM | 2060 nM | > 350 °C |  |  |  |  |  |
| REGN10933 |  |  |  |  |  |  |  | ~ 70 fold | 90.9 nM | 1.4 nM | 0.8 nM | > 700 nM |
